Laboratory results from ChEMBL document CHEMBL1201862, “PubChem BioAssay data set” (2004).
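Exposure lasted 48 hours, with cells grown in 96-well plates and compounds tested at five concentrations. GI50 marks 50% less growth.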 Activity calls are given as the source filed them. No stated cut-off is given here; in the data, active = GI50 up to about 1.1 µM and inactive = higher.

Experiments:
Test in all cases: inhibition of tumour cell growth, NCI panel, 48 h
[1] = system: SK-OV-3
[2] = system: UO-31
[3] = system: A498
[4] = system: HOP-62
[5] = system: NCI-H23
[6] = system: NCI-H522
[7] = system: Malme-3M
[8] = system: IGROV-1
[9] = system: CCRF-CEM
[10] = system: HCC 2998
[11] = system: SF-539
[12] = system: EKVX
[13] = system: OVCAR-3
[14] = system: KM12
[15] = system: A549
[16] = system: OVCAR-8
[17] = system: HCT-15
[18] = system: LOX IMVI
[19] = system: NCI-H226
[20] = system: NCI/ADR-RES

Row | Compound | GI50 [1] | GI50 [2] | GI50 [3] | GI50 [4] | GI50 [5] | GI50 [6] | GI50 [7] | GI50 [8] | GI50 [9] | GI50 [10] | GI50 [11] | GI50 [12] | GI50 [13] | GI50 [14] | GI50 [15] | GI50 [16] | GI50 [17] [µM] | GI50 [18] | GI50 [19] | GI50 [20]
1 | CC(=O)C1C(=O)N(C(C)C)C[C@@H]2CCC(=O)C[C@H]12 (stereo partly drawn) | > 100 µM (inactive) | > 100 µM (inactive) | > 100 µM (inactive) | > 100 µM (inactive) | > 100 µM (inactive) | > 100 µM (inactive) | > 100 µM (inactive) | > 100 µM (inactive) | > 100 µM (inactive) | > 100 µM (inactive) | > 100 µM (inactive) | > 100 µM (inactive) | > 100 µM (inactive) | > 100 µM (inactive) | > 100 µM (inactive) | > 100 µM (inactive) | > 100 | > 100 µM (inactive) |  | 
2 | N#Cc1ccc(/C=N/C23CC4CC(CC(C4)C2)C3)cc1 | > 100 µM (inactive) | > 100 µM (inactive) | > 100 µM (inactive) | > 100 µM (inactive) | > 100 µM (inactive) | > 100 µM (inactive) | > 100 µM (inactive) | > 100 µM (inactive) | 96.8 µM (inactive) | > 100 µM (inactive) | > 100 µM (inactive) | > 100 µM (inactive) | > 100 µM (inactive) | > 100 µM (inactive) | > 100 µM (inactive) | > 100 µM (inactive) | > 100 | 76.6 µM (inactive) | > 100 µM (inactive) | 
3 | Nc1ccn(C2(CO)C=C(CO)C(O)C2O)c(=O)n1 (stereo not drawn) | > 25.8 µM (inactive) | > 25.8 µM (inactive) | > 25.8 µM (inactive) | > 25.8 µM (inactive) |  | > 25.8 µM (inactive) | > 25.8 µM (inactive) | > 25.8 µM (inactive) |  | > 25.8 µM (inactive) | > 25.8 µM (inactive) | > 25.8 µM (inactive) | > 25.8 µM (inactive) | > 25.8 µM (inactive) | > 25.8 µM (inactive) | > 25.8 µM (inactive) | > 25.8 |  | > 25.8 µM (inactive) | 
4 | COc1cc(O)c2c(c1)C(=O)C1=C(C2=O)C(O)C[C@@](C)(O)C1 (stereo partly drawn) | 5.9 µM (inactive) | 2.67 µM (inactive) | 1.28 µM (inactive) | 8.71 µM (inactive) | 1.53 µM (inactive) | 0.71 µM (active) | 0.557 µM (active) | 1.79 µM (inactive) | 2.39 µM (inactive) | 1.47 µM (inactive) | 2.57 µM (inactive) | 3.38 µM (inactive) | 0.822 µM (active) | 2.47 µM (inactive) | 2.34 µM (inactive) | 1.16 µM (inactive) | 0.358 | 0.424 µM (active) | 5.82 µM (inactive) | 
5 | CCC1CCC2c3c([nH]c4ccccc34)C3C(=O)N(c4ccc(OC)cc4)C(=O)C3C2C1 (stereo not drawn) | 36.4 µM (inactive) | > 100 µM (inactive) |  | 54.6 µM (inactive) | > 100 µM (inactive) | 77.6 µM (inactive) |  | 64.1 µM (inactive) | 11.1 µM (inactive) | 91.2 µM (inactive) | 34 µM (inactive) | 48.3 µM (inactive) | 22.3 µM (inactive) | 93.5 µM (inactive) | 22.2 µM (inactive) | 27.1 µM (inactive) | 35.1 |  | > 100 µM (inactive) | 39.6 µM (inactive)
6 | OC1CN=C2c3ccccc3C(O)(c3ccc(Cl)cc3)N2C1 (stereo not drawn) | 69.5 µM (inactive) | 37.4 µM (inactive) |  | 55.5 µM (inactive) | 53.3 µM (inactive) | 26.2 µM (inactive) | 31.7 µM (inactive) | 87.9 µM (inactive) | 36.7 µM (inactive) | 17.1 µM (inactive) | 32.2 µM (inactive) | > 100 µM (inactive) | > 100 µM (inactive) | 52.4 µM (inactive) | > 100 µM (inactive) | 77.4 µM (inactive) |  | 45.4 µM (inactive) | 83.4 µM (inactive) | > 100 µM (inactive)
7 | Nc1ccc(-c2nn3c(COc4ccc(Cl)cc4)nnc3s2)cc1 | > 100 µM (inactive) | 84.9 µM (inactive) |  |  | > 100 µM (inactive) | 65 µM (inactive) | > 100 µM (inactive) | > 100 µM (inactive) |  | > 100 µM (inactive) |  | 86.9 µM (inactive) | > 100 µM (inactive) |  | > 100 µM (inactive) | > 100 µM (inactive) | > 100 | > 100 µM (inactive) |  | > 100 µM (inactive)
8 | Cc1c(C(=O)/C=C/c2c(Cl)cccc2Cl)c(=O)n(-c2ccccc2)n1C | 43 µM (inactive) | 31.8 µM (inactive) | 22.4 µM (inactive) |  |  | 12.8 µM (inactive) | 53.8 µM (inactive) | 30.1 µM (inactive) | 2.74 µM (inactive) | 23 µM (inactive) | > 10 µM (inactive) | 50.1 µM (inactive) | 19.1 µM (inactive) | 15.9 µM (inactive) | 15.1 µM (inactive) | 16.7 µM (inactive) | 19.5 | 11.8 µM (inactive) | 21.3 µM (inactive) | 
